ChEMBL document CHEMBL3882244, “IL-8 Receptor Antagonists” (2007)
pIC50: −log10 of the molar value.

Assays:
[1] = target: T1, C-X-C chemokine receptor type 2 (Homo sapiens, UniProt P25025); experiment: Antagonist activity at CXCR2 (unknown origin) expressed in CHO-K1 cells co-expressing Galpha-16 assessed as inhibition of IL8-induced calcium mobilization measured after 10 mins by Fluo-4AM dye based FLIPR assay; assay type: functional, cell-based
T1 sequence (P25025 whole entry): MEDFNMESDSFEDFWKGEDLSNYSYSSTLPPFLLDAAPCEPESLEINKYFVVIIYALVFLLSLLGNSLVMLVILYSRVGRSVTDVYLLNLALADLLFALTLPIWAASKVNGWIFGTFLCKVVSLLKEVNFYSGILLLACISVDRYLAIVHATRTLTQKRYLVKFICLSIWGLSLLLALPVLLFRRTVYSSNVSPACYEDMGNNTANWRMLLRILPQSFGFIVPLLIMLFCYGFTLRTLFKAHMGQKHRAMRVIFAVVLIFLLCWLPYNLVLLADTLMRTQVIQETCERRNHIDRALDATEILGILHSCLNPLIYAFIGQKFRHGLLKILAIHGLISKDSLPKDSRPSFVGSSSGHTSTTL

Blood = experiment: Inhibition of GROalpha-induced CD11b integrin expression on human neutrophils in human whole blood pretreated for 10 mins followed by GROalpha challenge measured after 10 mins by FITC/PE staining based flow cytometry; assay type: functional, tissue-based
[2] = target: T1, C-X-C chemokine receptor type 2; experiment: Displacement of [125I]IL8 from recombinant human CXCR2 expressed in CHO cell membranes measured after 1 hr by TopCount scintillation counting method

Compound	pIC50 [1]	pIC50 (Blood)	pIC50 [2]
O=C(Nc1cccnc1Cl)Nc1ccc(Cl)c(S(=O)(=O)[C@H]2CCCNC2)c1O		5.70 to 6.30	> 4.52
Cc1c(F)cccc1NC(=O)Nc1ccc(Cl)c(S(=O)(=O)[C@H]2CCCNC2)c1O [DANIRIXIN]		5.70 to 6.30	
Cc1c(F)cccc1NC(=O)Nc1ccc(Cl)c(S(=O)(=O)C2C[C@H]3CC[C@@H](C2)N3)c1O (some centres not stated)	6.22 to 8.30		
O=C(Nc1ccc(Cl)c(S(=O)(=O)C2C[C@H]3CC[C@@H](C2)N3)c1O)Nc1cccc(F)c1Cl (some centres not stated)	6.22 to 8.30		
O=C(Nc1cccnc1Cl)Nc1ccc(Cl)c(S(=O)(=O)C2CCNCC2)c1O	6.22 to 8.30		
O=C(Nc1ccccc1Oc1ccccc1)Nc1ccc(Cl)c(S(=O)(=O)C2CCNCC2)c1O	6.22 to 8.30		
O=C(Nc1ccccc1OC(F)(F)F)Nc1ccc(Cl)c(S(=O)(=O)C2CCCNC2)c1O (configuration not stated)	6.22 to 8.30		
O=C(Nc1ccccc1OC(F)(F)F)Nc1ccc(Cl)c(S(=O)(=O)C2CCNCC2)c1O	6.22 to 8.30		
O=C(Nc1ccc(Cl)c(S(=O)(=O)C2CCNCC2)c1O)Nc1cccc2c1OC(F)(F)O2	6.22 to 8.30		> 4.52
Cc1c(F)cccc1NC(=O)Nc1ccc(Cl)c(S(=O)(=O)[C@@H]2C[C@H]3CC[C@@H](C2)N3C)c1O	6.22 to 8.30		> 4.52
O=C(Nc1ccc(Cl)c(S(=O)(=O)C2CCNCC2)c1O)Nc1cccc(F)c1Cl	6.22 to 8.30	5.70 to 6.30	> 4.52
O=C(Nc1ccccc1Oc1ccccc1)Nc1ccc(Cl)c(S(=O)(=O)C2C[C@H]3CC[C@@H](C2)N3)c1O (some centres not stated)	6.22 to 8.30		> 4.52
CCc1ccccc1NC(=O)Nc1ccc(Cl)c(S(=O)(=O)C2CCNCC2)c1O	6.22 to 8.30		> 4.52
Cc1c(F)cccc1NC(=O)Nc1ccc(Cl)c(S(=O)(=O)C2CNC2)c1O	6.22 to 8.30		> 4.52
Cc1c(F)cccc1NC(=O)Nc1ccc(Cl)c(S(=O)(=O)C2CCNCC2)c1O	6.22 to 8.30	5.70 to 6.30	> 4.52
O=C(Nc1ccccc1Oc1ccccc1)Nc1ccc(Cl)c(S(=O)(=O)[C@H]2CCNC2)c1O	6.22 to 8.30	5.70 to 6.30	
O=C(Nc1ccc(Cl)c(S(=O)(=O)C2CNC2)c1O)Nc1cccc(F)c1Cl	6.22 to 8.30		
O=C(Nc1cccnc1Cl)Nc1ccc(Cl)c(S(=O)(=O)C2C[C@H]3CC[C@@H](C2)N3)c1O (some centres not stated)	6.22 to 8.30		
CCc1ccccc1NC(=O)Nc1ccc(Cl)c(S(=O)(=O)[C@@H]2CCNC2)c1O	6.22 to 8.30		> 4.52

The next lines start with the values.

pIC50 [1]	pIC50 (Blood)	pIC50 [2]	Compound
6.22 to 8.30			O=C(Nc1ccccc1OC(F)(F)F)Nc1ccc(Cl)c(S(=O)(=O)[C@@H]2CCNC2)c1O
6.22 to 8.30			CCOC(=O)N1CCC(S(=O)(=O)c2c(Cl)ccc(NC(=O)Nc3cccc(F)c3C)c2O)CC1
6.22 to 8.30	5.70 to 6.30		O=C(Nc1cccnc1Cl)Nc1ccc(Cl)c(S(=O)(=O)[C@H]2CCNC2)c1O
6.22 to 8.30			O=C(Nc1ccc(Cl)c(S(=O)(=O)CC2CCNC2)c1O)Nc1cccc(F)c1Cl (configuration not stated)
6.22 to 8.30		> 4.52	O=C(Nc1ccc(Cl)c(S(=O)(=O)C2CCCNC2)c1O)Nc1cccc(Cl)c1Cl (configuration not stated)
6.22 to 8.30		> 4.52	CCOC(=O)N1CCC(S(=O)(=O)c2c(Cl)ccc(NC(=O)Nc3ccccc3Oc3ccccc3)c2O)CC1
6.22 to 8.30	5.70 to 6.30		O=C(Nc1ccc(Cl)c(S(=O)(=O)[C@H]2CCCNC2)c1O)Nc1cccc(F)c1Cl
6.22 to 8.30		> 4.52	O=C(Nc1ccc(Cl)c(S(=O)(=O)[C@@H]2CCNC2)c1O)Nc1cccc(F)c1Cl
6.22 to 8.30		> 4.52	Cc1c(F)cccc1NC(=O)Nc1ccc(Cl)c(S(=O)(=O)CC2CCNC2)c1O (configuration not stated)
6.22 to 8.30			CCc1ccccc1NC(=O)Nc1ccc(Cl)c(S(=O)(=O)C2CCCNC2)c1O (configuration not stated)
6.22 to 8.30	5.70 to 6.30		O=C(Nc1cccnc1Cl)Nc1ccc(Cl)c(S(=O)(=O)C2CCCNC2)c1O (configuration not stated)
6.22 to 8.30			O=C(Nc1ccc(Cl)c(S(=O)(=O)[C@H]2CCNC2)c1O)Nc1cccc(F)c1Cl
6.22 to 8.30			O=C(Nc1ccc(Cl)c(S(=O)(=O)[C@@H]2CCNC2)c1O)Nc1cccc2c1OC(F)(F)O2
6.22 to 8.30		> 4.52	O=C(Nc1ccccc1OC(F)(F)F)Nc1ccc(Cl)c(S(=O)(=O)CC2CCNC2)c1O (configuration not stated)
6.22 to 8.30		> 4.52	O=C(Nc1cccnc1Cl)Nc1ccc(Cl)c(S(=O)(=O)C2CNC2)c1O
6.22 to 8.30			Cc1c(F)cccc1NC(=O)Nc1ccc(Cl)c(S(=O)(=O)[C@H]2CCNC2)c1O
6.22 to 8.30			CCOC(=O)N1CCC(S(=O)(=O)c2c(Cl)ccc(NC(=O)Nc3cccc(F)c3Cl)c2O)CC1
